Assay results: the supplement of paper PMC10883282
± gives the standard deviation of the averaged measurements.

Assays:
Assay in all cases: relative viability vs DMSO control (72 h) (fraction); higher = more viable cells
[1] = tested on: SYO-1
In short: (§1)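 Plates held 72 h at 37 °C and 5% CO2 contained sarcoma cell lines seeded in 384-well format to reach 80–90% confluence, plus 2.5 µl of serially diluted compound added after 24 h. Source plate concentrations ran from 10 mM to 0.0002 mM, with 0.1% DMSO as vehicle and a 5 µM positive control. Percent growth from ATPLite readings, averaged over up to triplicate wells, gave relative viability. Values were rescaled with 1 as full and 0 as none.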

[2] = tested on: SW872
In short: as §1

[3] = tested on: KHOS-NP
In short: as §1

[4] = tested on: SW684
In short: as §1

[5] = tested on: HT1080
In short: as §1

[6] = tested on: G401
In short: as §1

[7] = tested on: SK-LMS-1
In short: as §1

[8] = tested on: VA-ES-BJ
In short: as §1

[9] = tested on: HS729
In short: as §1

[10] = tested on: A204
In short: as §1

[11] = tested on: SW1353
In short: as §1

[12] = tested on: MES-SA
In short: as §1

Compound: O=C(c1ccc(F)c(F)c1Nc1ccc(I)cc1F)N1CC(O)([C@@H]2CCCCN2)C1 [Cobimetinib]
- relative viability ([1]; 0.00017 µM): 0.985 ± 0.036
- relative viability ([1]; 0.00051 µM): 0.998 ± 0.049
- relative viability ([1]; 0.00152 µM): 0.964 ± 0.043
- relative viability ([1]; 0.00457 µM): 0.9431 ± 0.007
- relative viability ([1]; 0.01372 µM): 0.928 ± 0.019
- relative viability ([1]; 0.04115 µM): 0.907 ± 0.055
- relative viability ([1]; 0.1235 µM): 0.929 ± 0.053
- relative viability ([1]; 0.3704 µM): 0.84 ± 0.05
- relative viability ([1]; 1.111 µM): 0.719 ± 0.023
- relative viability ([1]; 3.333 µM): 0.566 ± 0.036
- relative viability ([1]; 10 µM): -0.0086 ± 0.0037
- relative viability ([2]; 0.00017 µM): 1.06 ± 0.06
- relative viability ([2]; 0.00051 µM): 1.01 ± 0.03
- relative viability ([2]; 0.00152 µM): 0.923 ± 0.063
- relative viability ([2]; 0.00457 µM): 0.775 ± 0.049
- relative viability ([2]; 0.01372 µM): 0.67 ± 0.01
- relative viability ([2]; 0.04115 µM): 0.622 ± 0.024
- relative viability ([2]; 0.1235 µM): 0.606 ± 0.035
- relative viability ([2]; 0.3704 µM): 0.574 ± 0.018
- relative viability ([2]; 1.111 µM): 0.498 ± 0.016
- relative viability ([2]; 3.333 µM): 0.39 ± 0.035
- relative viability ([2]; 10 µM): 0.00283 ± 0.0013
- relative viability ([3]; 0.00017 µM): 1.09 ± 0.026
- relative viability ([3]; 0.00051 µM): 1.097 ± 0.0056
- relative viability ([3]; 0.00152 µM): 1.085 ± 0.0066
- relative viability ([3]; 0.00457 µM): 1.081 ± 0.0044
- relative viability ([3]; 0.01372 µM): 1.08 ± 0.014
- relative viability ([3]; 0.04115 µM): 0.912 ± 0.042
- relative viability ([3]; 0.1235 µM): 0.438 ± 0.024
- relative viability ([3]; 0.3704 µM): 0.319 ± 0.012
- relative viability ([3]; 1.111 µM): 0.275 ± 0.012
- relative viability ([3]; 3.333 µM): 0.28 ± 0.013
- relative viability ([3]; 10 µM): 0.187 ± 0.0053
- relative viability ([4]; 0.00017 µM): 1.23 ± 0.051
- relative viability ([4]; 0.00051 µM): 1.15 ± 0.021
- relative viability ([4]; 0.00152 µM): 1.17 ± 0.051
- relative viability ([4]; 0.00457 µM): 1.2 ± 0.061
- relative viability ([4]; 0.01372 µM): 1.13 ± 0.045
- relative viability ([4]; 0.04115 µM): 1.063 ± 0.0065
- relative viability ([4]; 0.1235 µM): 0.941 ± 0.015
- relative viability ([4]; 0.3704 µM): 0.738 ± 0.022
- relative viability ([4]; 1.111 µM): 0.536 ± 0.013
- relative viability ([4]; 3.333 µM): 0.357 ± 0.016
- relative viability ([4]; 10 µM): -0.00433 ± 0.0021
- relative viability ([5]; 0.00017 µM): 1.07 ± 0.015
- relative viability ([5]; 0.00051 µM): 1.087 ± 0.0045
- relative viability ([5]; 0.00152 µM): 1.067 ± 0.0094
- relative viability ([5]; 0.00457 µM): 1.049 ± 0.01
- relative viability ([5]; 0.01372 µM): 1.06 ± 0.021
- relative viability ([5]; 0.04115 µM): 0.876 ± 0.028
- relative viability ([5]; 0.1235 µM): 0.586 ± 0.032
- relative viability ([5]; 0.3704 µM): 0.4917 ± 0.0027
- relative viability ([5]; 1.111 µM): 0.39 ± 0.019
- relative viability ([5]; 3.333 µM): 0.247 ± 0.022
- relative viability ([5]; 10 µM): 0.0054 ± 0.00072
- relative viability ([6]; 0.00017 µM): 0.99 ± 0.051
- relative viability ([6]; 0.00051 µM): 1.03 ± 0.02
- relative viability ([6]; 0.00152 µM): 0.993 ± 0.013
- relative viability ([6]; 0.00457 µM): 0.99 ± 0.024
- relative viability ([6]; 0.01372 µM): 0.951 ± 0.034
- relative viability ([6]; 0.04115 µM): 0.896 ± 0.021
- relative viability ([6]; 0.1235 µM): 0.786 ± 0.022
- relative viability ([6]; 0.3704 µM): 0.643 ± 0.026
- relative viability ([6]; 1.111 µM): 0.396 ± 0.019
- relative viability ([6]; 3.333 µM): 0.0971 ± 0.007
- relative viability ([6]; 10 µM): 0.0011 ± 0.001
- relative viability ([7]; 0.00017 µM): 1.06 ± 0.049
- relative viability ([7]; 0.00051 µM): 1.09 ± 0.019
- relative viability ([7]; 0.00152 µM): 1.05 ± 0.059
- relative viability ([7]; 0.00457 µM): 1.02 ± 0.032
- relative viability ([7]; 0.01372 µM): 0.989 ± 0.041
- relative viability ([7]; 0.04115 µM): 0.767 ± 0.0095
- relative viability ([7]; 0.1235 µM): 0.584 ± 0.011
- relative viability ([7]; 0.3704 µM): 0.398 ± 0.02
- relative viability ([7]; 1.111 µM): 0.299 ± 0.012
- relative viability ([7]; 3.333 µM): 0.1728 ± 0.0017
- relative viability ([7]; 10 µM): 0.0129 ± 0.0027
- relative viability ([8]; 0.00017 µM): 1.05 ± 0.032
- relative viability ([8]; 0.00051 µM): 1.07 ± 0.048
- relative viability ([8]; 0.00152 µM): 1.05 ± 0.027
- relative viability ([8]; 0.00457 µM): 1.02 ± 0.033
- relative viability ([8]; 0.01372 µM): 0.982 ± 0.043
- relative viability ([8]; 0.04115 µM): 0.906 ± 0.036
- relative viability ([8]; 0.1235 µM): 0.747 ± 0.15
- relative viability ([8]; 0.3704 µM): 0.638 ± 0.15
- relative viability ([8]; 1.111 µM): 0.567 ± 0.089
- relative viability ([8]; 3.333 µM): 0.451 ± 0.12
- relative viability ([8]; 10 µM): 0.209 ± 0.025
- relative viability ([9]; 0.00017 µM): 0.9644 ± 0.0084
- relative viability ([9]; 0.00051 µM): 1 ± 0.053
- relative viability ([9]; 0.00152 µM): 0.97 ± 0.029
- relative viability ([9]; 0.00457 µM): 0.962 ± 0.058
- relative viability ([9]; 0.01372 µM): 0.915 ± 0.035
- relative viability ([9]; 0.04115 µM): 0.922 ± 0.031
- relative viability ([9]; 0.1235 µM): 0.876 ± 0.016
- relative viability ([9]; 0.3704 µM): 0.852 ± 0.018
- relative viability ([9]; 1.111 µM): 0.763 ± 0.014
- relative viability ([9]; 3.333 µM): 0.6553 ± 0.005
- relative viability ([9]; 10 µM): 0.241 ± 0.052
- relative viability ([10]; 0.00017 µM): 1.1 ± 0.038
- relative viability ([10]; 0.00051 µM): 1.11 ± 0.025
- relative viability ([10]; 0.00152 µM): 1.12 ± 0.029
- relative viability ([10]; 0.00457 µM): 1.11 ± 0.024
- relative viability ([10]; 0.01372 µM): 1.079 ± 0.0085
- relative viability ([10]; 0.04115 µM): 1.04 ± 0.015
- relative viability ([10]; 0.1235 µM): 1.01 ± 0.027
- relative viability ([10]; 0.3704 µM): 0.807 ± 0.073
- relative viability ([10]; 1.111 µM): 0.616 ± 0.034
- relative viability ([10]; 3.333 µM): 0.424 ± 0.037
- relative viability ([10]; 10 µM): 0.0102 ± 0.00081
- relative viability ([11]; 0.00017 µM): 0.989 ± 0.018
- relative viability ([11]; 0.00051 µM): 0.983 ± 0.028
- relative viability ([11]; 0.00152 µM): 1 ± 0.018
- relative viability ([11]; 0.00457 µM): 0.979 ± 0.033
- relative viability ([11]; 0.01372 µM): 0.899 ± 0.05
- relative viability ([11]; 0.04115 µM): 0.838 ± 0.059
- relative viability ([11]; 0.1235 µM): 0.778 ± 0.027
- relative viability ([11]; 0.3704 µM): 0.704 ± 0.042
- relative viability ([11]; 1.111 µM): 0.669 ± 0.036
- relative viability ([11]; 3.333 µM): 0.617 ± 0.051
- relative viability ([11]; 10 µM): 0.0141 ± 0.0011
- relative viability ([12]; 0.00017 µM): 0.934 ± 0.05
- relative viability ([12]; 0.00051 µM): 0.948 ± 0.05
- relative viability ([12]; 0.00152 µM): 0.925 ± 0.027
- relative viability ([12]; 0.00457 µM): 0.899 ± 0.027
- relative viability ([12]; 0.01372 µM): 0.896 ± 0.038
- relative viability ([12]; 0.04115 µM): 0.824 ± 0.038
- relative viability ([12]; 0.1235 µM): 0.786 ± 0.019
- relative viability ([12]; 0.3704 µM): 0.752 ± 0.027
- relative viability ([12]; 1.111 µM): 0.721 ± 0.017
- relative viability ([12]; 3.333 µM): 0.6391 ± 0.0033
- relative viability ([12]; 10 µM): 0.0114 ± 0.001
